Laboratory results published in patent US4328334A, “11-Aza-10-deoxo-10-dihydroerythromycin A and derivatives thereof as well as a process for their preparation” (PLIVA Pharmaceutical and Chemical Works, priority 1979, dated 1982).
Values after ≈ are worked out from the molar mass of the structure shown. Where two headings read alike, the source gives them in different places.

Experiments:
[1] = tested on: Streptococcus faecalis ATCC 8043; assay: in vitro minimum inhibitory concentration, Streptococcus faecalis ATCC 8043; assay type: cell-based; conditions: Enterococcus faecalis
[2] = tested on: Staphylococcus epidermidis ATCC 12228; assay: in vitro minimum inhibitory concentration, Staphylococcus epidermidis ATCC 12228; assay type: cell-based; conditions: ATCC12228; in vitro, Staphylococcus epidermidis ATCC 12228; read-out: minimum inhibitory concentrations (MIC)
[3] = tested on: Bacillus subtilis ATCC 6633; assay: in vitro minimum inhibitory concentration, Bacillus subtilis ATCC 6633; assay type: cell-based; conditions: ATCC6633; in vitro, Bacillus subtilis ATCC 6633; read-out: minimum inhibitory concentrations (MIC)
[4] = tested on: Staphylococcus aureus ATCC 6538-P; assay: in vitro minimum inhibitory concentration, Staphylococcus aureus ATCC 6538-P; assay type: cell-based; conditions: ATCC6538; in vitro, Staphylococcus aureus ATCC 6538-P; read-out: minimum inhibitory concentrations (MIC)
[5] = tested on: Micrococcus flavus ATCC 10240; assay: in vitro minimum inhibitory concentration, Micrococcus flavus ATCC 10240; assay type: cell-based
Sarcina lutea ATCC 9341 = assay: in vitro minimum inhibitory concentration, Sarcina lutea ATCC 9341; assay type: cell-based; conditions: Micrococcus luteus, ATCC9341, read-out: minimum inhibitory concentrations (MIC)
[6] = tested on: Bacillus cereus var. mycoides ATCC 11778; assay: microbe, parasite or virus in culture; assay type: cell-based; conditions: ATCC11778, read-out: minimum inhibitory concentrations (MIC)
[7] = tested on: Staphylococcus aureus ATCC 6538-P; assay: stability in acid medium: MIC after exposure to 1 N HCl; assay type: cell-based; conditions: for stability in acid medium compared with erythromycin A / stability in acid medium compared with erythromycin A oxime: pH 1.2, 30 minutes to 6 hours; for MIC: ATCC6538, pH 1.2, Staphylococcus aureus ATCC 6538-P
Salmonella panama = assay: in vitro minimum inhibitory concentration, Salmonella panama; assay type: cell-based; conditions: Salmonella enterica; in vitro, Salmonella panama; read-out: minimum inhibitory concentrations (MIC)
[8] = tested on: Brucella bronchiseptica ATCC 4617; assay: microbe, parasite or virus in culture; assay type: cell-based; conditions: Bordetella bronchiseptica, ATCC4617, read-out: minimum inhibitory concentrations (MIC)
[9] = tested on: Escherichia coli ATCC 10536; assay: in vitro minimum inhibitory concentration, Escherichia coli ATCC 10536; assay type: cell-based; conditions: ATCC10536, read-out: minimum inhibitory concentrations (MIC)
[10] = tested on: Pseudomonas aeruginosa NCTC 10490; assay: in vitro minimum inhibitory concentration, Pseudomonas aeruginosa NCTC 10490; assay type: cell-based; conditions: NCTC10490; in vitro, Pseudomonas aeruginosa NCTC 10490; read-out: minimum inhibitory concentrations (MIC)
[11] = tested on: Klebsiella pneumoniae ATCC 10031; assay: in vitro minimum inhibitory concentration, Klebsiella pneumoniae ATCC 10031; assay type: cell-based; conditions: ATCC10031; in vitro, Klebsiella pneumoniae ATCC 10031; read-out: minimum inhibitory concentrations (MIC)
albino mice = assay: acute i.v. toxicity in albino mice (Litchfield-Wilcoxon); conditions: mouse, in vivo, iv
[12] = as above; conditions: mouse, in vivo, iv; acute i.v., albino mice
[13] = tested on: Shigella flexneri II-1819/C; assay: in vitro minimum inhibitory concentration, Shigella flexneri II-1819/C; assay type: cell-based; conditions: II1819/C, read-out: minimum inhibitory concentrations (MIC)
Experimental: In order to examine the antibacterial action, some new compounds were tested in vitro on a series of gram-positive and gram-negative micro-organisms. The results are shown in Table 1 as minimum inhibitory concentrations (MIC) in mcg/ml in comparision with erythromycin A erythromycin A oxime.

[14] = tested on: Corynebacterium xerosis NCTC 9755; assay: in vitro minimum inhibitory concentration, Corynebacterium xerosis NCTC 9755; assay type: cell-based; conditions: NCTC9755; in vitro, Corynebacterium xerosis NCTC 9755; read-out: minimum inhibitory concentrations (MIC)
[15] = pKb in dimethyl formamide-water; assay type: physicochemical; conditions: dmf (66% v/v)-water; dimethyl formamide (66% v/v)-water
[16] = ATCC8043, in vitro, Streptococcus faecalis ATCC 8043, read-out: minimum inhibitory concentrations (MIC)
[17] = ATCC10240, in vitro, Micrococcus flavus ATCC 10240, read-out: minimum inhibitory concentrations (MIC)
[18] = exposure time 1/2 hour, 1 N HCl

Molecule `CC[C@H]1OC(=O)[C@H](C)[C@@H](O[C@H]2C[C@@](C)(OC)[C@@H](OC(C)=O)[C@H](C)O2)[C@H](C)[C@@H](O[C@@H]2O[C@H](C)C[C@H](N(C)C)[C@H]2OC(C)=O)[C@](C)(O)C[C@@H](C)CN(C(C)=O)[C@H](C)[C@@H](OC(C)=O)[C@]1(C)O` [Compound IV, 2',4",13,N-tetraacetyl-11-aza-10-deoxo-10-dihydroerythromycin A] has an MIC ([1]; ATCC8043, read-out: minimum inhibitory concentrations (MIC)) of 175 µg/mL (≈ 194 µM), an MIC [2] of 200 µg/mL (≈ 221 µM) and an MIC [3] of 200 µg/mL (≈ 221 µM). The MIC [4] was 200 µg/mL (≈ 221 µM), the MIC ([5]; Micrococcus flavus, ATCC10240, read-out: minimum inhibitory concentrations (MIC)) was 175 µg/mL (≈ 194 µM) and the MIC (Sarcina lutea ATCC 9341) was 10 µg/mL (≈ 11.1 µM). For the same molecule, the MIC [6] was 175 µg/mL (≈ 194 µM).

`CC[C@H]1OC(=O)[C@H](C)[C@@H](O[C@H]2C[C@@](C)(OC)[C@@H](O)[C@H](C)O2)[C@H](C)[C@@H](O[C@@H]2O[C@H](C)C[C@H](N(C)C)[C@H]2O)[C@](C)(O)C[C@@H](C)CN[C@H](C)[C@H]2OC(=O)O[C@@]21C` [Compound VI, 11-aza-10-deoxo-10-dihydroerythromycin A cyclic 13,14-carbonate] showed an MIC [1, 16] of 0.05 µg/mL (≈ 0.0657 µM), an MIC [2] of 2.5 µg/mL (≈ 3.29 µM) and an MIC [3] of 0.5 µg/mL (≈ 0.657 µM). It also gave an MIC [4] of 1 µg/mL (≈ 1.31 µM), an MIC [5, 17] of 0.5 µg/mL (≈ 0.657 µM) and an MIC (Sarcina lutea ATCC 9341) of 0.1 µg/mL (≈ 0.131 µM). For the same molecule, the “stability in acid medium compared with erythromycin A” value ([7]; 1 N HCl) was “significantly more stable than erythromycin A”, the “stability in acid medium compared with erythromycin A oxime” value ([7]; 1 N HCl) was “within the range of that of the starting antibioticum erythromycin A oxime” and the MIC ([7]; exposure time 0 hours) was 1 µg/mL (≈ 1.31 µM). It also gave an MIC [7, 18] of 1 µg/mL (≈ 1.31 µM), an MIC ([7]; exposure time 1 hour, 1 N HCl) of 1 µg/mL (≈ 1.31 µM) and an MIC ([7]; exposure time 2 hours, 1 N HCl) of 2.5 µg/mL (≈ 3.29 µM). For the same molecule, the MIC ([7]; exposure time 3 hours, 1 N HCl) was 2.5 µg/mL (≈ 3.29 µM), the MIC ([7]; exposure time 6 hours, 1 N HCl) was 2.5 µg/mL (≈ 3.29 µM) and the MIC [6] was 2.5 µg/mL (≈ 3.29 µM).

`CC[C@H]1OC(=O)[C@H](C)[C@@H](O[C@H]2C[C@@](C)(OC)[C@@H](O)[C@H](C)O2)[C@H](C)[C@@H](O[C@@H]2O[C@H](C)C[C@H](N(C)C)[C@H]2O)[C@](C)(O)C[C@@H](C)CN[C@H](C)[C@@H](O)[C@]1(C)O` [Compound I, 11-aza-4-0-cladinosyl-6-0-desosaminyl-15-ethyl-7,13,14-trihydroxy-3,5,7,9,12,14-hexamethyloxacyclopentadecane-2-one] showed an MIC (Salmonella panama) of 50 µg/mL (≈ 68 µM), an MIC [8] of 1 µg/mL (≈ 1.36 µM) and an MIC [9] of 10 µg/mL (≈ 13.6 µM). The MIC [10] was 50 µg/mL (≈ 68 µM), the MIC [11] was 10 µg/mL (≈ 13.6 µM) and the “acute i.v. toxicity compared with erythromycin A oxime” value (albino mice) was “less toxic that the starting erythromycin A oxime”. The LD50 [12] was 110 mg/kg, the MIC [1, 16] was 0.5 µg/mL (≈ 0.68 µM) and the MIC [2] was 0.5 µg/mL (≈ 0.68 µM). For the same molecule, the MIC [13] was 10 µg/mL (≈ 13.6 µM), the MIC [3] was 5 µg/mL (≈ 6.8 µM) and the MIC [4] was 0.5 µg/mL (≈ 0.68 µM). For the same molecule, the MIC [5, 17] was 0.05 µg/mL (≈ 0.068 µM), the MIC (Sarcina lutea ATCC 9341) was 0.05 µg/mL (≈ 0.068 µM) and the “stability in acid medium compared with erythromycin A” value ([7]; 1 N HCl) was “significantly more stable than erythromycin A”. For the same molecule, the “stability in acid medium compared with erythromycin A oxime” value ([7]; 1 N HCl) was “within the range of that of the starting antibioticum erythromycin A oxime”, the MIC ([7]; exposure time 0 hours) was 0.5 µg/mL (≈ 0.68 µM) and the MIC [7, 18] was 0.5 µg/mL (≈ 0.68 µM). The MIC ([7]; exposure time 1 hour, 1 N HCl) was 0.5 µg/mL (≈ 0.68 µM), the MIC ([7]; exposure time 2 hours, 1 N HCl) was 1 µg/mL (≈ 1.36 µM) and the MIC ([7]; exposure time 3 hours, 1 N HCl) was 1 µg/mL (≈ 1.36 µM). The MIC ([7]; exposure time 6 hours, 1 N HCl) was 1 µg/mL (≈ 1.36 µM), the MIC [14] was 1 µg/mL (≈ 1.36 µM) and the MIC [6] was 0.5 µg/mL (≈ 0.68 µM).

`CC[C@H]1OC(=O)[C@H](C)[C@@H](O[C@H]2C[C@@](C)(OC)[C@@H](O)[C@H](C)O2)[C@H](C)[C@@H](O[C@@H]2O[C@H](C)C[C@H](N(C)C)[C@H]2O)[C@](C)(O)C[C@@H](C)CN(S(=O)(=O)c2ccc(C)cc2)[C@H](C)[C@@H](O)[C@]1(C)O` [Compound VIII, N-(4-methyl-benzenesulfonyl)-11-aza-10-deoxo-10-dihydroerythromycin A] gave an MIC [1, 16] of 20 µg/mL (≈ 22.5 µM), an MIC [2] of 100 µg/mL (≈ 112 µM) and an MIC [3] of 100 µg/mL (≈ 112 µM). For the same molecule, the MIC [4] was 100 µg/mL (≈ 112 µM), the MIC [5, 17] was 20 µg/mL (≈ 22.5 µM) and the MIC (Sarcina lutea ATCC 9341) was 50 µg/mL (≈ 56.2 µM). It also gave an MIC [6] of 50 µg/mL (≈ 56.2 µM).

With `CC[C@H]1OC(=O)[C@H](C)[C@@H](O[C@H]2C[C@@](C)(OC)[C@@H](O)[C@H](C)O2)[C@H](C)[C@@H](O[C@@H]2O[C@H](C)C[C@H](N(C)C)[C@H]2OC(C)=O)[C@](C)(O)C[C@@H](C)CN(C(C)=O)[C@H](C)[C@@H](O)[C@]1(C)O` [Example 5, 2',N-diacetyl-11-aza-10-deoxo-10-dihydroerythromycin A] the pKa [15] was 6.7.
